pIC50: −log10 of the molar value.
Experiments:
HCT116 MTAP−/− = assay: Inhibition of cellular proliferation (Cell Titer Glo), HCT116 MTAP-/-; type: cell-based; conditions: Homo sapiens, HCT-116, 96 h, 4 days, read-out: 4 Day Relative Growth Inhibition (MTAP −/−)
Method in brief: (§1)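 Isogenic HCT116 MTAP+/+ and MTAP−/− cells treated 24 h after plating with 10-point 3-fold dilutions, then grown 4 days at 37 °C/5% CO2. ATP content read by Cell Titer Glo luminescence, blank-subtracted and normalized to 0.2% DMSO control, plotted as percent proliferation change versus log molar concentration.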

MAT2A homodimer = target: T1, MAT2A homodimer (Homo sapiens, UniProt P31153); assay: MAT2A biochemical assay (phosphate release, PiColorLock Gold); conditions: recombinant MAT2A homodimer, 60 min pre-incubation, 25° C.; read-out: Enzyme Inhibition
T1 construct: inferred from Ni sepharose purification and imidazole elution; made in house; host or cells: SF9 insect cells, recombinant baculovirus (Bac to Bac, pFASTBAC1)
T1 sequence (P31153 whole entry): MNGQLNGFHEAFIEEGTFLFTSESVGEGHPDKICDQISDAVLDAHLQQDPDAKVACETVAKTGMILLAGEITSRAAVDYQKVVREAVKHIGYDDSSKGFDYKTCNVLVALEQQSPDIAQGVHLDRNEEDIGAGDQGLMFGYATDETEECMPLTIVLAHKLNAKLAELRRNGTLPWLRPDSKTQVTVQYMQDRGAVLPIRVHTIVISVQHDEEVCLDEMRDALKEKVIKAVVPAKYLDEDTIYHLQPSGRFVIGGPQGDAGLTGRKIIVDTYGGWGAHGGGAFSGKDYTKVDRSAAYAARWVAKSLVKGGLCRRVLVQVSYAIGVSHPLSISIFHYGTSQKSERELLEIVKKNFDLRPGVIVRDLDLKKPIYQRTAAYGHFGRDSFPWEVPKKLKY
Method in brief: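 Baculovirus/Sf9-expressed, Ni-purified MAT2A homodimer (4 µg/mL in pH 8.0 Tris/KCl/MgCl2 buffer) preincubated 60 min at 25 °C with compound (2% DMSO final). Substrate mix of 500 µM ATP and 400 µM L-methionine added; 60 min at 25 °C; released phosphate quantified colorimetrically against a phosphate standard curve.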

HCT116 MTAP+/+ = assay: Inhibition of cellular proliferation (Cell Titer Glo), HCT116 MTAP+/+; type: cell-based; conditions: Homo sapiens, HCT-116, 96 h, 4 days, read-out: 4 Day Relative Growth Inhibition (MTAP +/+)
Method in brief: as §1

[1] = test system: MAT2A activity (SAM) in HCT116 cells with deleted MTAP gene; assay: Cellular assay of target engagement (SAM) by LC-MS/MS; type: cell-based; conditions: Homo sapiens, HCT-116; HCT116 MTAP −/−, 72 hrs; read-out: Cell 72 h SAM Inhibition (MTAP −/−)
Method in brief: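 HCT116 MTAP-deleted cells treated with 10-point 3-fold DMSO serial dilutions of compound for 72 hrs at 37° C. Cells lysed in cold 80% methanol/acetic acid extraction buffer with d3-SAM internal standard; SAM quantified by LC-MS/MS (MRM m/z 399.2→250.1).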

pIC50 (HCT116 MTAP−/−) | pIC50 (MAT2A homodimer) | pIC50 (HCT116 MTAP+/+) | pIC50 [1] | Compound
> 7.00 | > 7.00 | 6.00 to 7.00 | > 7.00 | CCNc1ccc2nn(-c3ccc4nn(C)cc4c3)c(=O)c(-c3ccc(OC(F)F)nc3)c2n1 [Example 313]
> 7.00 | > 7.00 | ≤ 6.00 | > 7.00 | Cn1cc2cc(-n3nc4ccc(NCC(F)(F)F)nc4c(-c4ccc(OC(F)F)cc4)c3=O)ccc2n1 [Example 160]
> 7.00 | > 7.00 | ≤ 6.00 | > 7.00 | Cn1cc2cc(-n3nc4c(CO)cc(OCC(F)F)nc4c(-c4ccc(OC(F)F)cc4)c3=O)ccc2n1 [Example 209, 6-(2,2-difluoroethoxy)-4-(4-(difluoromethoxy)phenyl)-8-(hydroxymethyl)-2-(2-methyl-2H-indazol-5-yl)pyrido[3,2-c]pyridazin-3(2H)-one]
6.00 to 7.00 | > 7.00 | ≤ 6.00 | 6.00 to 7.00 | O=c1c(-c2ccc(OC(F)F)cc2)c2nc(OCC(F)F)ccc2nn1-c1cn[nH]c1 [Example 193]
